Data on 10 molecules can be found in PubChem BioAssay (NCI).

What all share (test): NCI-60 cell line screen, 48 h
For test [1], the system named is A498 renal.
Test [2] has as its system EKVX NSCLC.
The subject of test [3] is HCT-15 colon.
In test [4] the test system is HL-60(TB) leukemia.
For test [5], the system named is HOP-62 NSCLC.
Test [6] deals with K-562 leukemia.
In test [7] the test system is LOX IMVI melanoma.
Test [8] has as its system SF-539 CNS.
In test [9] the test system is TK-10 renal.
The test system of test [10] is UACC-62 melanoma.

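Values below derive from 48-hour exposures of cells grown in 96-well plates, with endpoints linearly interpolated between the two concentrations bracketing the appropriate inhibition level. At the GI50, growth is halved. At the TGI there is no net growth.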 A value given as a limit tells only on which side of the number the result lay.

On to `COc1ccc(NC(=O)CC/C(CC(=O)C(C)(C)C)=N\NC(=O)C(=O)NN)cc1`, for which the TGI in test [1], in [2], in test [3], in test [4], in [5] and in [6] was over 100 µM each time. In addition, the TGI in test [7], in test [8], in test [9] and in [10] was over 100 µM throughout.
As to `COc1cc(OC)c(SSCCCCS(=O)O)c(OC)c1`, the TGI in test [1] came out at 33.6 µM; in test [2] it was 31.3 µM; in test [3], 34.2 µM; in [4], 24.8 µM; in test [5], 67 µM; in test [6], 89.3 µM. In addition, the TGI was found to be 29 µM in [7], 29.5 µM in [8], 42.9 µM in test [9] and 27.9 µM in [10].
Regarding `CCC(=O)Nc1ccccc1C#C/C=C\C#Cc1ccccc1SC`, the GI50 is 15.1 µM in test [1]; 7.11 µM in test [2]; 4.27 µM in test [3]; 1.46 µM in test [4]; 10 µM in test [5]; 6.37 µM in [6]. Further, the GI50 in [7] was 5.47 µM; in test [8] it was 14.2 µM; in test [9], 50.4 µM; in test [10], 4.04 µM. In addition, the TGI in [1] is over 100 µM; in test [2], 78.5 µM; in test [3], over 100 µM; in test [4], over 100 µM; in test [5] it was over 100 µM; in test [6], over 100 µM. The TGI in test [7], in test [8], in [9] and in [10] was over 100 µM throughout.
For the molecule `c1cc(N2CCCN(c3ccc(C4=NCCCN4)cc3)CC2)ccc1C1=NCCCN1`, the GI50 in test [1] was 2.72 µM; in test [2] it was 40.6 µM; in test [3] it was over 100 µM; in [4] it was over 100 µM; in test [5] it was over 100 µM; in test [6] it was 88 µM. Also, the GI50 is over 100 µM in [7], 59.4 µM in [8], 52.5 µM in test [9] and 68.1 µM in [10]. Besides, the TGI in test [1], in test [2], in test [3], in [4], in test [5] and in test [6] was over 100 µM in each case. Further, the TGI in test [7], in [8], in test [9] and in test [10] was over 100 µM in each case.
Take `CCCN(CCC)c1ccc(/C=C/c2ccc3cc(OCC)ccc3n2)cc1`: the GI50 is over 100 µM in test [1]; 91.4 µM in test [2]; 9.7 µM in test [3]; 20.3 µM in test [4]; over 100 µM in test [5]; 9.37 µM in test [6]. Moreover, the GI50 in [7] is over 100 µM; in test [8], over 100 µM; in test [9], over 100 µM; in test [10], 72.8 µM. Moreover, the TGI in test [1], in [2], in [3], in test [4], in [5] and in [6] was over 100 µM in each case. Besides, the TGI in test [7], in [8], in test [9] and in [10] was over 100 µM each time.
Regarding `CC1=C[C@]2(O)C(=O)[C@H](C)C[C@H]3[C@@H](CC[C@@](C)(O)/C=C\2C1=O)C3(C)C`, the TGI in [1] was 47.2 µM; in [2], over 100 µM; in test [3], 32.4 µM; in test [4], over 100 µM; in [5] it was over 70.3 µM; in test [6] it was over 100 µM. The TGI in test [7] was 34.6 µM; in test [8], 46.8 µM; in [9] it was over 78.7 µM; in [10], 30.6 µM.
Regarding `CNC(=S)NC(=O)c1c(Cl)n(C(=O)OC(C)(C)C)c2ccccc12`, the GI50 in [1] is 51.5 µM; in test [2] it was 39.7 µM; in [3] it was 86 µM; in test [4] it was 79.7 µM; in [5], over 100 µM; in test [6], over 100 µM. The GI50 in test [7] is 30 µM; in [8], 35 µM; in test [9], 97.5 µM; in test [10], 56.2 µM. For the same molecule, the TGI in test [1], in [2], in [3], in [4], in test [5] and in test [6] was over 100 µM each time. The TGI in [7], in test [8], in test [9] and in test [10] was over 100 µM each time.
For the molecule `CCOC(=O)Cc1ccc2c(c1O)C(=O)c1c(ccc(CC(=O)OCC)c1O)C2=O`, the TGI in test [1], in test [2], in [4], in [5], in test [6] and in test [7] was over 100 µM each time. Besides, the TGI in [8], in test [9] and in test [10] was over 100 µM each time.
As to `COC(=O)c1cc2c3ccccc3n3c(=O)c4cc5ccccc5nc4c(n1)c23`, the GI50 in [1], in [2], in [3], in [4], in test [6] and in test [7] was over 100 µM in each case. Further, the GI50 in [8], in test [9] and in test [10] was over 100 µM in each case. For the same molecule, the TGI in [1], in [2], in test [3], in test [4], in [6] and in [7] was over 100 µM each time. Also, the TGI in test [8], in [9] and in [10] was over 100 µM each time.
With `COc1ccc2c3c([nH]c2c1[N+](=O)[O-])C(C)N(Cc1ccc([N+](=O)[O-])cc1)CC3` (stereo unspecified), the TGI in test [1] is 63.7 µM; in test [2] it was over 100 µM; in test [3], 54.9 µM; in test [4], 17.9 µM; in test [6], 77.1 µM; in test [7], 26.8 µM. For the same molecule, the TGI in test [8] is over 100 µM; in [9] it was over 100 µM; in [10] it was 52.4 µM.
